Source: patent US10562857B2 (AFASCI, Inc., priority 2015, dated 2020)
Where two headings read alike, the source gives them in different places.

Columns and labels:
[1] = biological target: T1, Cav3.2 channel (Homo sapiens, UniProt O95180); test: Whole-cell patch clamp of T-type Cav3.2 channel expressed in HEK293 cells; format: cell-based
T1 construct: expressed in transfected cells; host or cells: HEK-293, tetracycline inducible expression system (Invitrogen)

[2] = biological target: Cav2.2 (N-type Ca channel) (Homo sapiens, UniProt Q00975); test: Patch clamp of Cav2.2 N-type Ca channel; format: cell-based; conditions: Table 2
[3] = test system: DRG ion channels Na+; test: Sodium currents in DRG neurons, patch clamp; format: cell-based, rodent; conditions: Table 2
Description: All the procedures related to animal handling were in strict accordance with NIH guidelines and IACUC approved protocols. Briefly, the spine was taken out and split into two halves from the middle line after sacrificing the mice by decapitation. […] The DRG neurons were minced with fine scissors and incubated at 35° C. for 50 min. […] Finally the cells were dispersed onto poly-1-ornithine-coated cover slips and maintained in a modified Krebs solution with streptomycin sulfate (0.2 mM), Penicillin G Sodium (0.3 mM), and Gentamycin (0.1 mM) at 21° C. […] All experiments were performed at room temperature (around 21° C.). Whole-cell currents were recorded using a MultiClamp 700B amplifier and analyzed offline with pCLAMP10.4 software (Molecular Devices, LLC, Sunnyvale Calif., USA). […] The internal solution was composed (in mM) of 125 CsCl, 10 HEPES (acid), 10 EGTA (ethylene glycol tetraacetic acid), 1 CaCl2, 1 MgCl2, 4 MgATP and 0.3 […] 7.3-7.4 adjusted with CsOH; osmolality verified as 295 mOsm/kg). Since the sodium ions were absent in the external solution, tetrodoctoxin was not needed. […] To record sodium (Na^+) currents in DRG neurons, the external solution used the modified Krebs solution specified above. […] To record potassium currents in DRG neurons, the external solution used the modified Kreb's solution specified above. The internal solution was composed (in mM) of 65 KCl, 80 KF, 5 KOH, 10 EGTA, 2 MgATP (pH 7.3-7.4 adjusted with KOH). Recording electrodes were fabricated using a P-87 puller (Sutter Instrument Co., Novato, Calif., USA). […] All reagents were purchased from Sigma unless specified otherwise. […] Selectivity among the three subtypes of the Cav3 T-type channel, and off-target effects on other key ion channels of the representative example compounds are presented in Table 2. Sodium and potassium channels in the rodent DRG neurons were recorded and tested as described above. The human ether-a-go-go-related gene (hERG) encodes the rapidly activating potassium channel (IKr) contributing to the repolarization of the cardiac action potential. The blockade of hERG can lead to a QT prolongation in the electrocardiogram known as long QT syndrome (Sanguinetti, et al., 1995). Therefore the representative example compounds in Table 2 were tested against the hERG channel.

[4] = Table 1, tested at at least 4 concentrations, read-out: IC50
[5] = Table 3A, read-out: Cav3.2 IC50

T1 sequence (O95180 whole entry): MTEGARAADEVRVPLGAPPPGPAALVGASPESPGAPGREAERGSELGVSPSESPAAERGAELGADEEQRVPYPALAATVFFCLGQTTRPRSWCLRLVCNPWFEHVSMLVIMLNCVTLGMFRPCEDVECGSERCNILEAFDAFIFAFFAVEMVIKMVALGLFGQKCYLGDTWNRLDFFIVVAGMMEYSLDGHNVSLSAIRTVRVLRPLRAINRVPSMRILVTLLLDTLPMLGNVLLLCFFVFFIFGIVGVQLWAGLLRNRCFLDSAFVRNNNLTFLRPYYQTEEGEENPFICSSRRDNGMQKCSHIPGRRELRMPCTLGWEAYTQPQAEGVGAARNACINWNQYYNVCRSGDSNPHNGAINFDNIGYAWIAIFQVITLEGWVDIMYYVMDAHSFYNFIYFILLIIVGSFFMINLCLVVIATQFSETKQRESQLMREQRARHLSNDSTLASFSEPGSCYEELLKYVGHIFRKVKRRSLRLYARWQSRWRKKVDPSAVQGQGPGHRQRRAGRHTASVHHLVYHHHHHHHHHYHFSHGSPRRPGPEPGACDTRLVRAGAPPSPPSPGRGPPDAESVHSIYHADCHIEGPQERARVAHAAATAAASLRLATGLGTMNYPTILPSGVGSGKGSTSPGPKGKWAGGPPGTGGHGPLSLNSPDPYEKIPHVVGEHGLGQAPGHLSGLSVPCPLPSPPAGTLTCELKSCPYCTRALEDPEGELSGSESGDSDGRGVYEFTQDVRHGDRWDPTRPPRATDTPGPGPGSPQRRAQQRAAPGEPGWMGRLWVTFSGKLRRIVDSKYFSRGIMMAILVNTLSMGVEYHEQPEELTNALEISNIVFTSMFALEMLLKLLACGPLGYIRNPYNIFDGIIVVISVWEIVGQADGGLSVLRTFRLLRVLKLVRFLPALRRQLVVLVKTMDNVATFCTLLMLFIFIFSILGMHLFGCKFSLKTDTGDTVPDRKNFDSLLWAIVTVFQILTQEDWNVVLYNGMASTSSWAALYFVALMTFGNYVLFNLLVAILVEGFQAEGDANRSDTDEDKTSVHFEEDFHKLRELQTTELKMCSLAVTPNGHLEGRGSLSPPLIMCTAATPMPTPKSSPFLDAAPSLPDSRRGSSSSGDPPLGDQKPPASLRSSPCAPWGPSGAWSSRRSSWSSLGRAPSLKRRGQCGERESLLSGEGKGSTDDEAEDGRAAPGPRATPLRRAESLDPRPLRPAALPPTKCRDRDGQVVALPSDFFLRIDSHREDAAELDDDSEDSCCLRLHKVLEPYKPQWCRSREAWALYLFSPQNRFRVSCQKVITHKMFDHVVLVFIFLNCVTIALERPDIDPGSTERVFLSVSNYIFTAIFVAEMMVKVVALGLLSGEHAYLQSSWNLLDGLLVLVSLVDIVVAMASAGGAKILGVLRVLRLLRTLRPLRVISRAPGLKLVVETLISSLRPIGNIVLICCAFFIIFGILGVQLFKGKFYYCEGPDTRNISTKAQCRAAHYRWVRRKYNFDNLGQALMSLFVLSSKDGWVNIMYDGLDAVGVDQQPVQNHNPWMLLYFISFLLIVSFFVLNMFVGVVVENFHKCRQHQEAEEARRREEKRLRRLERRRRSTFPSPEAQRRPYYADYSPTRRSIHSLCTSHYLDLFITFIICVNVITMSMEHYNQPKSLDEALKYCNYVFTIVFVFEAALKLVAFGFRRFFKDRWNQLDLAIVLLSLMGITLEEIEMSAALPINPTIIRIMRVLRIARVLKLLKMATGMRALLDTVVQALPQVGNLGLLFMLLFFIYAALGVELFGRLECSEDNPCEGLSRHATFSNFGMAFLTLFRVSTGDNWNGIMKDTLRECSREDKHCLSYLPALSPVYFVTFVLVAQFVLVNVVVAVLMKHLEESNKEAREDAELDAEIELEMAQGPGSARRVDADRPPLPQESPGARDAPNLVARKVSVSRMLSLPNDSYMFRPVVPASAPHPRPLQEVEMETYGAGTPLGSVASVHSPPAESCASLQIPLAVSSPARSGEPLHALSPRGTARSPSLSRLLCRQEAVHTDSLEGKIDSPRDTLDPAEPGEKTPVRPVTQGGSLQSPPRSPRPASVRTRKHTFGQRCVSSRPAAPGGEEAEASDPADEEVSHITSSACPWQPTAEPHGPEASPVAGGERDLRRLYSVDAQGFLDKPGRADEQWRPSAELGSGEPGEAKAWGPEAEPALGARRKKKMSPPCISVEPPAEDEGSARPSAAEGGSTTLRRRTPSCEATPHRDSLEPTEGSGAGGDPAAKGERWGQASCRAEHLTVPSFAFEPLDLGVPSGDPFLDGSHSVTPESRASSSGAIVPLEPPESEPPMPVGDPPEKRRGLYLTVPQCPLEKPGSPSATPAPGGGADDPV

Compound	IC50 [1, 4]	IC50 ([1]; Table 2, read-out: Cav3.2 IC50)	IC50 [2]	IC50 [3]	% Use-Dep (use-dependent drug action) ([1]; Table 3A)	IC50 [1, 5]	IC50 ([1]; read-out: Cav3.2 IC50)	IC50 ([1]; read-out: IC50)
CC(C)(C)NC(=O)CN1CCC2(CC1)C[C@H]2NC(=O)c1cc(Cl)cc(Cl)c1 (single isomer, unassigned) [Example 57, (R)—N-(6-(2-(tert-Butylamino)-2-oxoethyl)-6-azaspiro[2.5]octan-1-yl)-3,5-dichlorobenzamide or (S)—N-(6-(2-(tert-Butylamino)-2-oxoethyl)-6-azaspiro[2.5]octan-1-yl)-3,5-dichlorobenzamide]	60 nM	60 nM	> 30 µM	37.2 µM	–	–	–	–
CC(C)(C)NC(=O)CN1CCC2(CC1)CC2NC(=O)c1cc(F)cc(Cl)c1 (single isomer, unassigned) [Example 128, (S)—N-(6-(2-(tert-Butylamino)-2-oxoethyl)-6-azaspiro[2.5]octan-1-yl)-3-chloro-5-fluorobenzamide or (R)—N-(6-(2-(tert-Butylamino)-2-oxoethyl)-6-azaspiro[2.5]octan-1-yl)-3-chloro-5-fluorobenzamide]	110 nM	90 nM	> 10 µM	> 100 µM	21.3%	89 nM	–	–
CC(C)(C)NC(=O)CN1CCC2(CC1)C[C@H]2NC(=O)c1cc(F)cc(Cl)c1 (single isomer, unassigned) [Example 129, (R)—N-(6-(2-(tert-Butylamino)-2-oxoethyl)-6-azaspiro[2.5]octan-1-yl)-3-chloro-5-fluorobenzamide or (S)—N-(6-(2-(tert-Butylamino)-2-oxoethyl)-6-azaspiro[2.5]octan-1-yl)-3-chloro-5-fluorobenzamide]	870 nM	870 nM	> 30 µM	> 100 µM	–	–	–	–
CC(C)(C)NC(=O)CN1CCC2(CC1)C[C@H]2NC(=O)c1cc(F)cc(C(F)(F)F)c1 (single isomer, unassigned) [Example 130, (R)—N-(6-(2-(tert-Butylamino)-2-oxoethyl)-6-azaspiro[2.5]octan-1-yl)-3-fluoro-5-(trifluoromethyl)benzamide or (S)—N-(6-(2-(tert-Butylamino)-2-oxoethyl)-6-azaspiro[2.5]octan-1-yl)-3-fluoro-5-(trifluoromethyl)benzamide]	180 nM	180 nM	> 30 µM	> 100 µM	–	–	–	–
CC(C)(C)NC(=O)CN1CCC2(CC1)C[C@H]2C(=O)Nc1cc(C(F)(F)F)cc(C(F)(F)F)c1 (single isomer, unassigned) [Example 132, (R)—N-(3,5-Bis(trifluoromethyl)phenyl)-6-(2-(tert-butylamino)-2-oxoethyl)-6-azaspiro[2.5]octane-1-carboxamide or (S)—N-(3,5-Bis(trifluoromethyl)phenyl)-6-(2-(tert-butylamino)-2-oxoethyl)-6-azaspiro[2.5]octane-1-carboxamide]	–	–	3.1 µM	14.3 µM	–	–	140 nM	140 nM
CC(C)(C)NC(=O)CN1CCC2(CC1)C[C@H]2NC(=O)c1cc(C(F)(F)F)cc(C(F)(F)F)c1 (single isomer, unassigned) [Example 144, ((R)—N-(6-(2-(tert-butylamino)-2-oxoethyl)-6-azaspiro[2.5]octan-1-yl)-3,5-bis(trifluoromethyl)benzamide or (S)—N-(6-(2-(tert-butylamino)-2-oxoethyl)-6-azaspiro[2.5]octan-1-yl)-3,5-bis(trifluoromethyl)benzamide]	80 nM	80 nM	12.3 µM	34.4 µM	–	–	–	–
CC(C)(C)NC(=O)CN1CCC2(CC1)C[C@H]2NC(=O)C12CC3CC(CC(C3)C1)C2 (single isomer, unassigned) [Example 145, N—((R)-6-(2-(tert-butylamino)-2-oxoethyl)-6-azaspiro[2.5]octan-1-yl)adamantane-1-carboxamide or N—((S)-6-(2-(tert-butylamino)-2-oxoethyl)-6-azaspiro[2.5]octan-1-yl)adamantane-1-carboxamide]	140 nM	140 nM	15.6 µM	> 30 µM	–	–	–	–
CC(C)(C)CCN1CCC2(CC1)C[C@H]2NC(=O)c1cc(C(F)(F)F)cc(C(F)(F)F)c1 (single isomer, unassigned) [Example 146, (R)—N-(6-(3,3-dimethylbutyl)-6-azaspiro[2.5]octan-1-yl)-3,5-bis(trifluoromethyl)benzamide or (S)—N-(6-(3,3-dimethylbutyl)-6-azaspiro[2.5]octan-1-yl)-3,5-bis(trifluoromethyl)benzamide]	70 nM	70 nM	2.5 µM	8.7 µM	–	–	–	–
CC(C)(C)CCN1CCC2(CC1)C[C@H]2NC(=O)c1cc(C(F)(F)F)ccc1Cl (single isomer, unassigned) [Example 147, (R)-2-Chloro-N-(6-(3,3-dimethylbutyl)-6-azaspiro[2.5]octan-1-yl)-5-(trifluoromethyl)benzamide or (S)-2-Chloro-N-(6-(3,3-dimethylbutyl)-6-azaspiro[2.5]octan-1-yl)-5-(trifluoromethyl)benzamide]	130 nM	130 nM	5.6 µM	14.3 µM	–	–	–	–
CC(C)(C)NC(=O)CN1CCC2(CC1)CC2NC(=O)c1cc(F)cc(Cl)c1 (stereo not shown) [Example 17, N-(6-(2-(tert-Butylamino)-2-oxoethyl)-6-azaspiro[2.5]octan-1-yl)-3-chloro-5-fluorobenzamide]	240 nM	240 nM	> 30 µM	> 100 µM	–	–	–	–
CC(C)(C)CCN1CCC2(CC1)CC2NC(=O)c1cc(F)cc(Cl)c1 (stereo not shown) [Example 28, 3-Chloro-N-(6-(3,3-dimethylbutyl)-6-azaspiro[2.5]octan-1-yl)-5-fluorobenzamide]	70 nM	70 nM	9.4 µM	23.4 µM	–	–	–	–
O=C(Nc1nnc(-c2ccccc2)o1)c1ccc(Cl)s1 [Example 115, 5-Chloro-N-(5-phenyl-1,3,4-oxadiazol-2-yl)thiophene-2-carboxamide]	930 nM	–	–	–	–	–	–	–
CC(C)(C)NC(=O)CN1CCC2(CC1)CC2C(=O)Nc1cc(F)cc(C(F)(F)F)c1 (stereo not shown) [Example 141, 6-(2-(tert-Butylamino)-2-oxoethyl)-N-(3-fluoro-5-(trifluoromethyl)phenyl)-6-azaspiro[2.5]octane-1-carboxamide]	180 nM	180 nM	5.1 µM	> 30 µM	–	–	–	–
CC(C)(C)CCN1C[C@@H]2[C@@H](CNC(=O)c3cc(Cl)cc(Cl)c3)[C@@H]2C1 [ML218, 3,5-Dichloro-N-[[(1α,5α,6-exo,6α)-3-(3,3-dimethylbutyl)-3-azabicyclo[3.1.0]hex-6-yl]methyl]benzamide, reference compound]	–	310 nM	20.7 µM	55.6 µM	19.2%	310 nM	–	–
CC(C)(C)NC(=O)CN1CCC(CNC(=O)c2cc(F)cc(Cl)c2)CC1 [Z944, reference compound]	–	190 nM	> 30 µM	> 30 µM	17.6%	200 nM	–	–
